# Source: patent US6908733B2, “Diagnosis and treatment of human kidney diseases” (Shiva Biomedical, LLC, priority 1999, dated 2005)
# Where “and” joins values, the source holds several entries; their conditions need not be identical. Equal entries are not always repeated. Entries after “also recorded” stand apart in the source; their conditions may differ.
# Assays:
# [1] = system: patients with kidney disease; test: Serum creatinine in patients with kidney disease before and after treatment with an iron chelator; type: in vivo, human
# Protocol: Creatinine clearance was calculated by the standard formula Cr=Ucr V/PCr where Cr=clearance of creatinine (ml/min); Ucr=urine creatinine (mg/dl), V=volume of urine, and PCr=plasma creatinine (mg/dl).
# (§1) The diagnosis of the kidney disease was made by performing a kidney biopsy and included patients with membranoproliferative glomerulonephritis, membranous nephropathy, focal segmental sclerosis, IgA nephropathy, and diabetes as described above.
# (§2) Patients with kidney disease who had abnormally high urinary protein were treated with the iron chelator deferiprone (1,2-dimethyl-3-hydroxypyrid-4-one) (L1). Deferiprone was synthesized as previously described capsule (Kontoghiorghes A. J., et al., Inorganica Chimica Acta 136:L11-L12 (1987), the teachings of which are hereby incorporated by reference in it entirety) and formulated into capsules containing 500 mg of deferiprone per capsule.
# (§3) Urinary protein and serum creatinine was measured as described above before the administration of deferiprone. Patients were treated by oral ingestion of deferiprone in a range between about 30 mg and about 75 mg deferiprone per kilogram body weight per day 3 times a day. Urinary protein and serum creatinine was obtained 2-6 months after the administration of the iron chelator. […] Total urinary protein and serum creatinine measured before (e.g., pretreatment) and after the administration of deferiprone were compared using a paired t-test and p-value of <0.05 was considered significant.
# [2] = system: patients with kidney disease; test: 24-hr urinary protein in patients with kidney disease before and after treatment with an iron chelator; type: in vivo, human
# Protocol: Kidney disease was detected in patients by the presence of an abnormal amount of protein in the urine and/or an abnormal renal function. An abnormal amount of protein in urine is an amount of total protein greater than about 0.15 g/24 h measured by an adaptation of pyrogallol red-molydate method described by Fujita, Y., et al., Bunseki Kgaku 32:379-386 (1983), the teachings of which are hereby incorporated by reference in their entirety. Many patients, as part of their routine work up, had received kidney biopsies providing diagnosis of the nature of the kidney disease.
# as §1, §2, §3
# [3] = patients with kidney disease, paired t-test, p<0.05 significant
# [4] = individual patients, before vs after 2-6 months oral deferiprone about 30-75 mg/kg per day
# [5] = mean of N=14 patients, p < 0.001
structure (smiles),measurement,setting,value
"Cc1c(O)c(=O)ccn1C [deferiprone, 1,2-dimethyl-3-hydroxypyrid-4-one]",effect on serum creatinine,[1]; [3],significantly decreased; also recorded: decrease
same,Creatinine After,"[1]; serum, individual patients, 2-6 months after oral deferiprone about 30-75 mg/kg per day",0.9 mg/dl (3×) and 1.3 mg/dl and 0.6 mg/dl and 0.5 mg/dl (2×) and 1.4 mg/dl and 0.7 mg/dl and 1.5 mg/dl and 0.8 mg/dl
same,"Creatinine After, Mean","[1]; serum, mean of N=11 patients, before 1.10",0.90 mg/dL
same,24-Hr Urinary Protein Reduction %,[2]; [4],49% and 83% and 38% and 25% and 62% and 99% and 34% and 44% and 80% and 15% and 9% and 2% and 54% and 78%
same,24-Hr Urinary Protein Reduction Grams,[2]; [4],1.9 Grams and 1 Grams and 2.5 Grams and 0.7 Grams (2×) and 2.6 Grams and 5.95 Grams and 2 Grams and 2.1 Grams and 0.43 Grams and 0.5 Grams and 0.1 Grams and 1.4 Grams and 2.2 Grams
same,24-Hr Urinary Protein After,"[2]; individual patients, oral deferiprone about 30-75 mg/kg per day, 3 times a day, measured 2-6 months after administration",1.5 grams/24 hrs and 0.2 grams/24 hrs and 4 grams/24 hrs and 1.6 grams/24 hrs (2×) and 0.05 grams/24 hrs and 2.8 grams/24 hrs and 2.5 grams/24 hrs and 0.1 grams/24 hrs and 3.8 grams/24 hrs and 4.8 grams/24 hrs and 4.6 grams/24 hrs and 1.2 grams/24 hrs and 0.6 grams/24 hrs
same,"24-Hr Urinary Protein After, Mean","[2]; mean of N=14 patients, before 3.91, 2-6 months oral deferiprone about 30-75 mg/kg per day, p < 0.001",2.13 grams/24 hrs
same,"24-Hr Urinary Protein Reduction %, Mean",[2]; [5],48%
same,"24-Hr Urinary Protein Reduction Grams, Mean",[2]; [5],1.70 Grams
same,effect on total urinary protein,[2]; [3],significantly decreased; also recorded: decrease
